Source: US9060961B2, “Molecules and methods for treatment and detection of cancer” (UNIVERSITY OF WASHINGTON, priority 2006, dated 2015)

Test system: T lymphocytes in peripheral blood mononuclear cells
Assay: IFN-gamma ELISPOT of human T cells with IGF1R peptides
Format: cell-based
Settings: for Immunogenicity Cancer: responders / cancer patients tested; for Immunogenicity Volunteer: responders / volunteer donors tested
Protocol: A scoring system based on internet available epitope prediction algorithms was developed to predict the peptides derived from IGF1R that have optimal binding affinity and promiscuity against multiple MHC class II molecules. […] After stimulating human T cells with the peptides, IFN-gamma secretion was determined via ELISPOT analysis. Five of the most immunogenic peptides were selected for in vivo evaluation in neu-transgenic mice to assess the potential of clinical efficacy.

Sequence | Immunogenicity Cancer | Immunogenicity Volunteer
LIIALPVAVLLIVGG [p 936-950] | 4/10 | 1/5
GVLVLRASFDERQPY [p 1332-1346] | 2/10 | 
IRGWKLFYNYALVIF [p 106-120] | 3/10 | 2/5
TQYAVYVKAVTLTMV [p 575-589] | 1/10 | 1/5
DYRSYRFPKLTVITE [p 69-83] |  | 1/5
LVIMLYVFHRKRNNS [p 951-965] | 3/10 | 
IDIRNDYQQLKRLEN [p 37-5] | 1/10 | 
VIEGYLHILLISKAE [p 54-68] | 2/10 | 
YSFYVLDNQNLQQLW [p 418-432] | 1/10 | 
SKMIQMAGEIADGMA [p 1110-1124] | 1/10 | 
WSFGVVLWEIATLAE [p 1196-1210] | 2/10 | 1/5
SHALVSLSFLKNLRL [p 393-407] | 2/10 | 2/5
GMAYLNANKFVHRDL [p 1122-1136] | 1/10 | 
DERQPYAHMNGGRKN [p 1341-1355] | 1/10 | 
ASNFVFARTMPAEGA [p 817-831] | 1/10 | 
